{"source": "PubChem BioAssay AID2060886", "about": "(Molecular Pharmacology Branch, DTP, NCI, 2025)", "tested_on": "653999-131-R-J2-PDC complex spheroids, growth inhibition", "assay": "Anticancer human tumor 653999-131-R-J2-PDC patient-derived lung adenocarcinoma cell line growth inhibition [RAS]", "settings": "for IC50: curve of first compound; for viability, T/C: stronger effect = lower value", "procedure,_shortened": "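Agents were tested in combination matrices in half-log decrements from a top concentration at or near clinical Cmax (10 microM if undetermined). Targets were multi-cell spheroids of tumour lines plus HUVEC and MSC stromal cells.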", "data": [{"compound": "CCc1c2c(nc3ccc(O)cc13)-c1cc3c(c(=O)n1C2)COC(=O)[C@]3(O)CC", "note": "+ C=CC(=O)N1CCN(c2nc(OCC3CCCN3C)nc3c(F)c(-c4nc(N)cc(C)c4C(F)(F)F)c(Cl)cc23)C(C)C1;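 further: spheroids exposed to the agents for seven days before the readout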", "values": [{"measurement": "IC50", "setting": "second compound 0.00316 µM", "value": 8.57, "unit": "nM"}, {"measurement": "IC50", "setting": "second compound 0.01 µM", "value": 6.53, "unit": "nM"}, {"measurement": "IC50", "setting": "second compound 0.0316 µM", "value": 6.41, "unit": "nM"}, {"measurement": "IC50", "setting": "second compound 0.1 µM", "value": 5.92, "unit": "nM"}, {"measurement": "IC50", "setting": "second compound 0.316 µM", "value": 5.94, "unit": "nM"}, {"measurement": "IC50", "setting": "second compound 1 µM", "value": 8.46, "unit": "nM"}, {"measurement": "viability, T/C", "setting": "second compound 0.00316 µM, first compound 0.000949 µM", "value": 80.2, "unit": "%"}, {"measurement": "viability, T/C", "setting": "second compound 0.00316 µM, first compound 0.003 µM", "value": 58.5, "unit": "%"}, {"measurement": "viability, T/C", "setting": "second compound 0.00316 µM, first compound 0.00949 µM", "value": 53.5, "unit": "%"}, {"measurement": "viability, T/C", "setting": "second compound 0.00316 µM, first compound 0.03 µM", "value": 34.3, "unit": "%"}, {"measurement": "viability, T/C", "setting": "second compound 0.00316 µM, first compound 0.0949 µM", "value": 20.8, "unit": "%"}, {"measurement": "viability, T/C", "setting": "second compound 0.00316 µM, first compound 0.3 µM", "value": 10.2, "unit": "%"}, {"measurement": "viability, T/C", "setting": "second compound 0.01 µM, first compound 0.000949 µM", "value": 88.7, "unit": "%"}, {"measurement": "viability, T/C", "setting": "second compound 0.01 µM, first compound 0.003 µM", "value": 61.9, "unit": "%"}, {"measurement": "viability, T/C", "setting": "second compound 0.01 µM, first compound 0.00949 µM", "value": 44.2, "unit": "%"}, {"measurement": "viability, T/C", "setting": "second compound 0.01 µM, first compound 0.03 µM", "value": 29, "unit": "%"}, {"measurement": "viability, T/C", "setting": "second compound 0.01 µM, first compound 0.0949 µM", "value": 21.5, "unit": "%"}, {"measurement": "viability, T/C", "setting": "second compound 0.01 µM, first compound 0.3 µM", "value": 11.3, "unit": "%"}, {"measurement": "viability, T/C", "setting": "second compound 0.0316 µM, first compound 0.000949 µM", "value": 90.9, "unit": "%"}, {"measurement": "viability, T/C", "setting": "second compound 0.0316 µM, first compound 0.003 µM", "value": 60.8, "unit": "%"}, {"measurement": "viability, T/C", "setting": "second compound 0.0316 µM, first compound 0.00949 µM", "value": 43.8, "unit": "%"}, {"measurement": "viability, T/C", "setting": "second compound 0.0316 µM, first compound 0.03 µM", "value": 30.4, "unit": "%"}, {"measurement": "viability, T/C", "setting": "second compound 0.0316 µM, first compound 0.0949 µM", "value": 20.6, "unit": "%"}, {"measurement": "viability, T/C", "setting": "second compound 0.0316 µM, first compound 0.3 µM", "value": 11.6, "unit": "%"}, {"measurement": "viability, T/C", "setting": "second compound 0.1 µM, first compound 0.000949 µM", "value": 85.8, "unit": "%"}, {"measurement": "viability, T/C", "setting": "second compound 0.1 µM, first compound 0.003 µM", "value": 58.3, "unit": "%"}, {"measurement": "viability, T/C", "setting": "second compound 0.1 µM, first compound 0.00949 µM", "value": 43.1, "unit": "%"}, {"measurement": "viability, T/C", "setting": "second compound 0.1 µM, first compound 0.03 µM", "value": 30.2, "unit": "%"}, {"measurement": "viability, T/C", "setting": "second compound 0.1 µM, first compound 0.0949 µM", "value": 23.7, "unit": "%"}, {"measurement": "viability, T/C", "setting": "second compound 0.1 µM, first compound 0.3 µM", "value": 12.1, "unit": "%"}, {"measurement": "viability, T/C", "setting": "second compound 0.316 µM, first compound 0.000949 µM", "value": 83.9, "unit": "%"}, {"measurement": "viability, T/C", "setting": "second compound 0.316 µM, first compound 0.003 µM", "value": 59.7, "unit": "%"}, {"measurement": "viability, T/C", "setting": "second compound 0.316 µM, first compound 0.00949 µM", "value": 42.5, "unit": "%"}, {"measurement": "viability, T/C", "setting": "second compound 0.316 µM, first compound 0.03 µM", "value": 29.5, "unit": "%"}, {"measurement": "viability, T/C", "setting": "second compound 0.316 µM, first compound 0.0949 µM", "value": 23, "unit": "%"}, {"measurement": "viability, T/C", "setting": "second compound 0.316 µM, first compound 0.3 µM", "value": 11.9, "unit": "%"}, {"measurement": "viability, T/C", "setting": "second compound 1 µM, first compound 0.000949 µM", "value": 84.5, "unit": "%"}, {"measurement": "viability, T/C", "setting": "second compound 1 µM, first compound 0.003 µM", "value": 64.2, "unit": "%"}, {"measurement": "viability, T/C", "setting": "second compound 1 µM, first compound 0.00949 µM", "value": 50.7, "unit": "%"}, {"measurement": "viability, T/C", "setting": "second compound 1 µM, first compound 0.03 µM", "value": 31.2, "unit": "%"}, {"measurement": "viability, T/C", "setting": "second compound 1 µM, first compound 0.0949 µM", "value": 25.3, "unit": "%"}, {"measurement": "viability, T/C", "setting": "second compound 1 µM, first compound 0.3 µM", "value": 14.5, "unit": "%"}]}, {"compound": "C=CC(=O)Nc1cc(Nc2nccc(-c3cn(C)c4ccccc34)n2)c(OC)cc1N(C)CCN(C)C", "note": "+ CCn1c(-c2cc(N3CCN(C)CC3)cnc2C(C)OC)c2c3cc(ccc31)-c1csc(n1)CC(NC(=O)C1CC1C)C(=O)N1CCCC(N1)C(=O)OCC(C)(C)C2", "values": [{"measurement": "IC50", "setting": "second compound 0.000949 µM", "value": 816, "unit": "nM"}, {"measurement": "IC50", "setting": "second compound 0.003 µM", "value": 106, "unit": "nM"}, {"measurement": "IC50", "setting": "second compound 0.00949 µM", "value": "< 3.16", "unit": "nM"}, {"measurement": "IC50", "setting": "second compound 0.03 µM", "value": "< 3.16", "unit": "nM"}, {"measurement": "IC50", "setting": "second compound 0.0949 µM", "value": "< 3.16", "unit": "nM"}, {"measurement": "IC50", "setting": "second compound 0.3 µM", "value": "< 3.16", "unit": "nM"}, {"measurement": "viability, T/C", "setting": "second compound 0.000949 µM, first compound 0.00316 µM", "value": 88.7, "unit": "%"}, {"measurement": "viability, T/C", "setting": "second compound 0.000949 µM, first compound 0.01 µM", "value": 75.9, "unit": "%"}, {"measurement": "viability, T/C", "setting": "second compound 0.000949 µM, first compound 0.0316 µM", "value": 56.2, "unit": "%"}, {"measurement": "viability, T/C", "setting": "second compound 0.000949 µM, first compound 0.1 µM", "value": 76, "unit": "%"}, {"measurement": "viability, T/C", "setting": "second compound 0.000949 µM, first compound 0.316 µM", "value": 56.7, "unit": "%"}, {"measurement": "viability, T/C", "setting": "second compound 0.000949 µM, first compound 1 µM", "value": 44.5, "unit": "%"}, {"measurement": "viability, T/C", "setting": "second compound 0.003 µM, first compound 0.00316 µM", "value": 80.6, "unit": "%"}, {"measurement": "viability, T/C", "setting": "second compound 0.003 µM, first compound 0.01 µM", "value": 63.7, "unit": "%"}, {"measurement": "viability, T/C", "setting": "second compound 0.003 µM, first compound 0.0316 µM", "value": 59, "unit": "%"}, {"measurement": "viability, T/C", "setting": "second compound 0.003 µM, first compound 0.1 µM", "value": 52.9, "unit": "%"}, {"measurement": "viability, T/C", "setting": "second compound 0.003 µM, first compound 0.316 µM", "value": 43.1, "unit": "%"}, {"measurement": "viability, T/C", "setting": "second compound 0.003 µM, first compound 1 µM", "value": 37.2, "unit": "%"}, {"measurement": "viability, T/C", "setting": "second compound 0.00949 µM, first compound 0.00316 µM", "value": 47.3, "unit": "%"}, {"measurement": "viability, T/C", "setting": "second compound 0.00949 µM, first compound 0.01 µM", "value": 39.5, "unit": "%"}, {"measurement": "viability, T/C", "setting": "second compound 0.00949 µM, first compound 0.0316 µM", "value": 36.7, "unit": "%"}, {"measurement": "viability, T/C", "setting": "second compound 0.00949 µM, first compound 0.1 µM", "value": 38, "unit": "%"}, {"measurement": "viability, T/C", "setting": "second compound 0.00949 µM, first compound 0.316 µM", "value": 31.6, "unit": "%"}, {"measurement": "viability, T/C", "setting": "second compound 0.00949 µM, first compound 1 µM", "value": 23.2, "unit": "%"}, {"measurement": "viability, T/C", "setting": "second compound 0.03 µM, first compound 0.00316 µM", "value": 36.4, "unit": "%"}, {"measurement": "viability, T/C", "setting": "second compound 0.03 µM, first compound 0.01 µM", "value": 29.9, "unit": "%"}, {"measurement": "viability, T/C", "setting": "second compound 0.03 µM, first compound 0.0316 µM", "value": 28, "unit": "%"}, {"measurement": "viability, T/C", "setting": "second compound 0.03 µM, first compound 0.1 µM", "value": 37.2, "unit": "%"}, {"measurement": "viability, T/C", "setting": "second compound 0.03 µM, first compound 0.316 µM", "value": 28.8, "unit": "%"}, {"measurement": "viability, T/C", "setting": "second compound 0.03 µM, first compound 1 µM", "value": 16.2, "unit": "%"}, {"measurement": "viability, T/C", "setting": "second compound 0.0949 µM, first compound 0.00316 µM", "value": 25.3, "unit": "%"}, {"measurement": "viability, T/C", "setting": "second compound 0.0949 µM, first compound 0.01 µM", "value": 25.1, "unit": "%"}, {"measurement": "viability, T/C", "setting": "second compound 0.0949 µM, first compound 0.0316 µM", "value": 20.9, "unit": "%"}, {"measurement": "viability, T/C", "setting": "second compound 0.0949 µM, first compound 0.1 µM", "value": 16.8, "unit": "%"}, {"measurement": "viability, T/C", "setting": "second compound 0.0949 µM, first compound 0.316 µM", "value": 18.6, "unit": "%"}, {"measurement": "viability, T/C", "setting": "second compound 0.0949 µM, first compound 1 µM", "value": 12.7, "unit": "%"}, {"measurement": "viability, T/C", "setting": "second compound 0.3 µM, first compound 0.00316 µM", "value": 18.2, "unit": "%"}, {"measurement": "viability, T/C", "setting": "second compound 0.3 µM, first compound 0.01 µM", "value": 26.2, "unit": "%"}, {"measurement": "viability, T/C", "setting": "second compound 0.3 µM, first compound 0.0316 µM", "value": 22.1, "unit": "%"}, {"measurement": "viability, T/C", "setting": "second compound 0.3 µM, first compound 0.1 µM", "value": 22.1, "unit": "%"}, {"measurement": "viability, T/C", "setting": "second compound 0.3 µM, first compound 0.316 µM", "value": 16.6, "unit": "%"}, {"measurement": "viability, T/C", "setting": "second compound 0.3 µM, first compound 1 µM", "value": 11.2, "unit": "%"}]}]}
